Test results taken from patent US12048720B2, “Compositions comprising bacterial strains” (CJ BIOSCIENCE, INC., priority 2017, dated 2024).

Tested on: SH-SY5Y neuroblastoma cells
Experiment: Neuroprotection / cell viability of differentiated SH-SY5Y neuroblastoma cells with or without MPP (CCK-8)
Type: cell-based, human
Settings: RA-differentiated SHSY-5Y cells treated with MPP+, FIG. 11
Protocol: Neuroblastoma cells were treated with compositions comprising bacterial strains according to the invention. The SH-SY5Y neuroblastoma cells used are dopamine producing and well-established as an in vitro model for studying neurodegenerative diseases. The ability of the bacterial strains to increase neuroproliferation was observed. The neuroblastoma cells were treated also treated dopaminergic neurotoxin 1-methyl-4-phenylpyridinium (MPP), which induces permanent symptoms of Parkinson's disease in neuroblastoma cells. The ability of the bacterial strains to act as a neuroprotectant against MPP was investigated.
SH-SY5Y neuroblastoma cells were purchased from ECCACC (Cat. no: 94030304) and were grown in MEM (Sigma Aldrich, cat n. M2279) supplemented with Nutrient Mixture F-12 Ham (Sigma Aldrich, cat n. N4888).
Once grown the SH-SY5Y neuroblastoma cells were plated on 96-well plate at 11,000 cells/well and incubated for 2 days. […] Cell viability was measured by using CCK-8 reagent (Sigma Aldrich, Cell Counting Kit—8, cat. n. 96992-3000TESTS-F) and read at 450 nm wavelength.
RA-differentiated SHSY-5Y cells were treated with MPP+, the active metabolite of MPTP, a chemical widely used to mimic in vitro and in vivo some of the features of PD pathology. Cell viability was measured as the rate of mitochondria respiration (FIG. 11).

O=c1c(O)c(-c2ccc(O)c(O)c2)oc2cc(O)cc(O)c12 [quercetin]
protection compared to YCFA-MPP+ treated sample: about 20%
